What was measured:
Daudi = experiment: cells; format: functional, cell-based; details: Homo sapiens;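 note: growth inhibition of Daudi cells, read out by a viability assay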
Description: SANGER: Inhibition of human Daudi cell growth in a cell viability assay.

EB2 = experiment: cells; format: functional, cell-based; details: Homo sapiens;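 note: growth inhibition of EB2 cells, read out with a cell viability assay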
Description: SANGER: Inhibition of human EB2 cell growth in a cell viability assay.

ECC12 = experiment: cells; format: functional, cell-based; details: Homo sapiens
Description: SANGER: Inhibition of human ECC12 cell growth in a cell viability assay.

ECC4 = experiment: cells; format: functional, cell-based; details: Homo sapiens;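 note: growth inhibition of ECC4 cells, read out with a cell viability assay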
Description: SANGER: Inhibition of human ECC4 cell growth in a cell viability assay.

GDM-1 = experiment: cells; format: functional, cell-based; details: Homo sapiens;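 note: cell viability readout used to measure growth inhibition of human GDM-1 cells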
Description: SANGER: Inhibition of human GDM-1 cell growth in a cell viability assay.

HCC1599 = experiment: cells; format: functional, cell-based; details: Homo sapiens;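 note: growth inhibition of HCC1599 cells, read out in a cell viability assay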
Description: SANGER: Inhibition of human HCC1599 cell growth in a cell viability assay.

HSC-4 = experiment: cells; format: functional, cell-based, Homo sapiens; details: Homo sapiens, HSC-4;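 note: growth inhibition of human HSC-4 cells, read out with a cell viability assay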
Description: SANGER: Inhibition of human HSC-4 cell growth in a cell viability assay.

IMR-5 = experiment: cells; format: functional, cell-based; details: Homo sapiens;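 note: growth inhibition of human IMR-5 cells, read out with a cell viability assay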
Description: SANGER: Inhibition of human IMR-5 cell growth in a cell viability assay.

JIYOYE = experiment: cells; format: functional, cell-based; details: Homo sapiens
Description: SANGER: Inhibition of human JiyoyeP-2003 cell growth in a cell viability assay.

K052 = experiment: cells; format: functional, cell-based; details: Homo sapiens;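 note: Read-out from a cell viability assay, IC50 reflecting suppression of K052 cell growth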
Description: SANGER: Inhibition of human K052 cell growth in a cell viability assay.

KARPAS-422 = experiment: cells; format: functional, cell-based; details: Homo sapiens
Description: SANGER: Inhibition of human KARPAS-422 cell growth in a cell viability assay.

L-540 = experiment: cells; format: functional, cell-based; details: Homo sapiens;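 note: growth inhibition of the human L-540 cell line, read out with a viability assay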
Description: SANGER: Inhibition of human L-540 cell growth in a cell viability assay.

LC-1F = experiment: cells; format: functional, cell-based; details: Homo sapiens;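 note: growth inhibition of human LC-1F cells, read out with a cell viability assay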
Description: SANGER: Inhibition of human LC-1F cell growth in a cell viability assay.

LC4-1 = experiment: cells; format: functional, cell-based; details: Homo sapiens;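 note: growth inhibition of LC4-1 cells, read out with a cell viability assay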
Description: SANGER: Inhibition of human LC4-1 cell growth in a cell viability assay.

LP-1 = experiment: cells; format: functional, cell-based; details: Homo sapiens;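 note: growth inhibition of human LP-1 cells, with the read-out taken from a cell viability assay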
Description: SANGER: Inhibition of human LP-1 cell growth in a cell viability assay.

MEL-JUSO = experiment: cells; format: functional, cell-based, Homo sapiens; details: Homo sapiens, MEL-JUSO;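 note: growth inhibition of human MEL-JUSO cells, read out with a cell viability assay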
Description: SANGER: Inhibition of human MEL-JUSO cell growth in a cell viability assay.

MHH-CALL-2 = experiment: cells; format: functional, cell-based; details: Homo sapiens;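 note: growth inhibition of the cell line, read out in a cell viability assay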
Description: SANGER: Inhibition of human MHH-CALL-2 cell growth in a cell viability assay.

NB1 = experiment: cells; format: functional, cell-based; details: Homo sapiens;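 note: reduction of NB1 cell proliferation, read out with a viability assay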
Description: SANGER: Inhibition of human NB1 cell growth in a cell viability assay.

NCI-H1436 = experiment: cells; format: functional, cell-based; details: Homo sapiens;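 note: growth suppression of human NCI-H1436 cells, determined with a cell viability readout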
Description: SANGER: Inhibition of human NCI-H1436 cell growth in a cell viability assay.

NCI-H1522 = experiment: cells; format: functional, cell-based; details: Homo sapiens;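 note: growth inhibition of NCI-H1522 cells, read out with a cell viability assay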
Description: SANGER: Inhibition of human NCI-H1522 cell growth in a cell viability assay.

NCI-H1703 = experiment: cells; format: functional, cell-based, Homo sapiens; details: Homo sapiens, NCI-H1703;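 note: growth inhibition of NCI-H1703 cells, read out via a cell viability assay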
Description: SANGER: Inhibition of human NCI-H1703 cell growth in a cell viability assay.

NCI-H1882 = experiment: cells; format: functional, cell-based; details: Homo sapiens
Description: SANGER: Inhibition of human NCI-H1882 cell growth in a cell viability assay.

NCI-H2009 = experiment: cells; format: functional, cell-based, Homo sapiens; details: Homo sapiens, NCI-H2009;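 note: cell viability assay measuring inhibition of NCI-H2009 cell growth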
Description: SANGER: Inhibition of human NCI-H2009 cell growth in a cell viability assay.

NCI-H2196 = experiment: cells; format: functional, cell-based; details: Homo sapiens;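 note: cell viability assay used as the readout of growth inhibition in NCI-H2196 cells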
Description: SANGER: Inhibition of human NCI-H2196 cell growth in a cell viability assay.

NCI-H2227 = experiment: cells; format: functional, cell-based; details: Homo sapiens;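 note: growth inhibition of the human cell line, read out with a cell viability assay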
Description: SANGER: Inhibition of human NCI-H2227 cell growth in a cell viability assay.

NCI-H345 = experiment: cells; format: functional, cell-based; details: Homo sapiens;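 note: growth inhibition of NCI-H345 cells measured with a cell viability assay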
Description: SANGER: Inhibition of human NCI-H345 cell growth in a cell viability assay.

NCI-H889 = experiment: cells; format: functional, cell-based; details: Homo sapiens;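 note: cell growth inhibition of the cell line, read out with a viability assay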
Description: SANGER: Inhibition of human NCI-H889 cell growth in a cell viability assay.

OPM-2 = experiment: cells; format: functional, cell-based; details: Homo sapiens;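 note: growth of OPM-2 cells measured with a viability assay, IC50 for suppression of proliferation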
Description: SANGER: Inhibition of human OPM-2 cell growth in a cell viability assay.

PF-382 = experiment: cells; format: functional, cell-based; details: Homo sapiens
Description: SANGER: Inhibition of human PF-382 cell growth in a cell viability assay.

REH = experiment: cells; format: functional, cell-based; details: Homo sapiens;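 note: growth inhibition of REH cells determined with a cell viability read-out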
Description: SANGER: Inhibition of human REH cell growth in a cell viability assay.

RL = experiment: cells; format: functional, cell-based; details: Homo sapiens
Description: SANGER: Inhibition of human RL cell growth in a cell viability assay.

RPMI-6666 = experiment: cells; format: functional, cell-based; details: Homo sapiens
Description: SANGER: Inhibition of human RPMI-6666 cell growth in a cell viability assay.

RPMI 8402 = experiment: SANGER: Inhibition of human RPMI-8402 cell growth in a cell viability assay.; format: functional, cell-based
Raji = experiment: cells; format: functional, cell-based; details: Homo sapiens;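 note: cell viability assay measuring inhibition of Raji cell growth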
Description: SANGER: Inhibition of human Raji cell growth in a cell viability assay.

SNU-423 = experiment: cells; format: functional, cell-based, Homo sapiens; details: Homo sapiens, SNU-423
Description: SANGER: Inhibition of human SNU-423 cell growth in a cell viability assay.

SNU-C1 = experiment: cells; format: functional, cell-based; details: Homo sapiens;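 note: growth inhibition of SNU-C1 human cells, read out by a cell viability assay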
Description: SANGER: Inhibition of human SNU-C1 cell growth in a cell viability assay.

SUP-T1 = experiment: cells; format: functional, cell-based; details: Homo sapiens;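 note: growth inhibition of human SUP-T1 cells, read out as cell viability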
Description: SANGER: Inhibition of human SUP-T1 cell growth in a cell viability assay.

TALL-1 = experiment: cells; format: functional, cell-based; details: Homo sapiens;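 note: growth inhibition of cultured human TALL-1 cells, read out by a cell viability assay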
Description: SANGER: Inhibition of human TALL-1 cell growth in a cell viability assay.

23132-87 = experiment: cells; format: functional, cell-based, Homo sapiens; details: Homo sapiens
Description: SANGER: Inhibition of human 23132-87 cell growth in a cell viability assay.

BC1 cell line = experiment: SANGER: Inhibition of human BC-1 cell growth in a cell viability assay.; format: functional, cell-based
BL-41 = experiment: cells; format: functional, cell-based; details: Homo sapiens;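 note: growth inhibition of human BL-41 cells, read out with a cell viability assay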
Description: SANGER: Inhibition of human BL-41 cell growth in a cell viability assay.

BL-70 = experiment: SANGER: Inhibition of human BL-70 cell growth in a cell viability assay.; format: functional, cell-based
BOKU = experiment: cells; format: functional, cell-based; details: Homo sapiens;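 note: growth inhibition of the human BOKU cell line, read out by a cell viability assay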
Description: SANGER: Inhibition of human BOKU cell growth in a cell viability assay.

CA46 = experiment: cells; format: functional, cell-based; details: Homo sapiens;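 note: growth inhibition of human CA46 cells, read out by a cell viability assay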
Description: SANGER: Inhibition of human CA46 cell growth in a cell viability assay.

THP-1 = experiment: cells; format: functional, cell-based; details: Homo sapiens;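 note: growth inhibition of THP-1 cells, read out via a cell viability assay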
Description: SANGER: Inhibition of human THP-1 cell growth in a cell viability assay.

UACC-812 = experiment: cells; format: functional, cell-based; details: Homo sapiens
Description: SANGER: Inhibition of human UACC-812 cell growth in a cell viability assay.

WSU-NHL = experiment: cells; format: functional, cell-based; details: Homo sapiens;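 note: growth inhibition of human WSU-NHL cells, read out with a cell viability assay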
Description: SANGER: Inhibition of human WSU-NHL cell growth in a cell viability assay.

YT = experiment: cells; format: functional, cell-based; details: Homo sapiens
Description: SANGER: Inhibition of human YT cell growth in a cell viability assay.

CMK = experiment: cells; format: functional, cell-based; details: Homo sapiens;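 note: growth inhibition of CMK cells, read out as cell viability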
Description: SANGER: Inhibition of human CMK cell growth in a cell viability assay.

Question: For `Cc1cnc(-c2cnc(NCCNc3ccc(C#N)cn3)nc2-c2ccc(Cl)cc2Cl)[nH]1` [LADUVIGLUSIB], which IC50 (Daudi) is on record?
Answer: > 2.56 µM

Question: And the IC50 (EB2)?
Answer: > 2.56 µM

Question: What about the IC50 (ECC12) of the same compound?
Answer: > 2.56 µM

Question: And the IC50 (ECC4)?
Answer: > 2.56 µM

Question: And the IC50 (GDM-1)?
Answer: > 2.56 µM

Question: And the IC50 (HCC1599)?
Answer: > 2.56 µM

Question: What about the IC50 (HSC-4) of the same compound?
Answer: > 2.56 µM

Question: What about the IC50 (IMR-5) of the same compound?
Answer: > 2.56 µM

Question: And the IC50 (JIYOYE)?
Answer: > 2.56 µM

Question: What about the IC50 (K052) of the same compound?
Answer: > 2.56 µM

Question: And the IC50 (KARPAS-422)?
Answer: > 2.56 µM

Question: What about the IC50 (L-540) of the same compound?
Answer: > 2.56 µM

Question: What about the IC50 (LC-1F) of the same compound?
Answer: > 2.56 µM

Question: And the IC50 (LC4-1)?
Answer: > 2.56 µM

Question: And the IC50 (LP-1)?
Answer: > 2.56 µM

Question: And the IC50 (MEL-JUSO)?
Answer: > 2.56 µM

Question: What about the IC50 (MHH-CALL-2) of the same compound?
Answer: > 2.56 µM

Question: What about the IC50 (NB1) of the same compound?
Answer: > 2.56 µM

Question: What about the IC50 (NCI-H1436) of the same compound?
Answer: > 2.56 µM

Question: What about the IC50 (NCI-H1522) of the same compound?
Answer: > 2.56 µM

Question: And the IC50 (NCI-H1703)?
Answer: > 2.56 µM

Question: And the IC50 (NCI-H1882)?
Answer: > 2.56 µM

Question: What about the IC50 (NCI-H2009) of the same compound?
Answer: > 2.56 µM

Question: What about the IC50 (NCI-H2196) of the same compound?
Answer: > 2.56 µM

Question: And the IC50 (NCI-H2227)?
Answer: > 2.56 µM

Question: What about the IC50 (NCI-H345) of the same compound?
Answer: > 2.56 µM

Question: And the IC50 (NCI-H889)?
Answer: > 2.56 µM

Question: What about the IC50 (OPM-2) of the same compound?
Answer: > 2.56 µM

Question: What about the IC50 (PF-382) of the same compound?
Answer: > 2.56 µM

Question: What about the IC50 (REH) of the same compound?
Answer: > 2.56 µM

Question: What about the IC50 (RL) of the same compound?
Answer: > 2.56 µM

Question: And the IC50 (RPMI-6666)?
Answer: > 2.56 µM

Question: What about the IC50 (RPMI 8402) of the same compound?
Answer: > 2.56 µM

Question: What about the IC50 (Raji) of the same compound?
Answer: > 2.56 µM

Question: What about the IC50 (SNU-423) of the same compound?
Answer: 2.5 µM

Question: And the IC50 (SNU-C1)?
Answer: > 2.56 µM

Question: And the IC50 (SUP-T1)?
Answer: > 2.56 µM

Question: And the IC50 (TALL-1)?
Answer: > 2.56 µM

Question: And the IC50 (23132-87)?
Answer: > 2.56 µM

Question: What about the IC50 (BC1 cell line) of the same compound?
Answer: > 2.56 µM

Question: And the IC50 (BL-41)?
Answer: > 2.56 µM

Question: And the IC50 (BL-70)?
Answer: > 2.56 µM

Question: And the IC50 (BOKU)?
Answer: > 2.56 µM

Question: And the IC50 (CA46)?
Answer: > 2.56 µM

Question: What about the IC50 (THP-1) of the same compound?
Answer: > 2.56 µM

Question: And the IC50 (UACC-812)?
Answer: > 2.56 µM

Question: What about the IC50 (WSU-NHL) of the same compound?
Answer: > 2.56 µM

Question: What about the IC50 (YT) of the same compound?
Answer: > 2.56 µM

Question: And the IC50 (CMK)?
Answer: > 2.56 µM

Question: Which results are given for `CN(c1ncccc1CNc1nc(Nc2ccc3c(c2)CC(=O)N3)ncc1C(F)(F)F)S(C)(=O)=O` [PF-00562271]?
Answer: IC50 (Daudi): > 2.56 µM; IC50 (EB2): > 2.56 µM; IC50 (ECC12): > 2.56 µM; IC50 (ECC4): > 2.56 µM; IC50 (GDM-1): > 2.56 µM; IC50 (HCC1599): > 2.56 µM; IC50 (HSC-4): > 2.56 µM; IC50 (IMR-5): > 2.56 µM; IC50 (JIYOYE): > 2.56 µM; IC50 (K052): > 2.56 µM; IC50 (KARPAS-422): > 2.56 µM; IC50 (L-540): > 2.56 µM; IC50 (LC-1F): > 2.56 µM; IC50 (LC4-1): > 2.56 µM; IC50 (LP-1): > 2.56 µM; IC50 (MEL-JUSO): 1.73 µM; IC50 (MHH-CALL-2): > 2.56 µM; IC50 (NB1): > 2.56 µM; IC50 (NCI-H1436): > 2.56 µM; IC50 (NCI-H1522): > 2.56 µM; IC50 (NCI-H1703): > 2.56 µM; IC50 (NCI-H1882): > 2.56 µM; IC50 (NCI-H2009): > 2.56 µM; IC50 (NCI-H2196): > 2.56 µM; IC50 (NCI-H2227): > 2.56 µM; IC50 (NCI-H345): > 2.56 µM; IC50 (NCI-H889): > 2.56 µM; IC50 (OPM-2): > 2.56 µM; IC50 (PF-382): > 2.56 µM; IC50 (REH): > 2.56 µM; IC50 (RL): > 2.56 µM; IC50 (RPMI-6666): > 2.56 µM; IC50 (RPMI 8402): > 2.56 µM; IC50 (Raji): > 2.56 µM; IC50 (SNU-423): > 2.56 µM; IC50 (SNU-C1): > 2.56 µM; IC50 (SUP-T1): > 2.56 µM; IC50 (TALL-1): > 2.56 µM; IC50 (23132-87): > 2.56 µM; IC50 (BC1 cell line): 1.62 µM; IC50 (BL-41): > 2.56 µM; IC50 (BL-70): > 2.56 µM; IC50 (BOKU): > 2.56 µM; IC50 (CA46): > 2.56 µM; IC50 (THP-1): > 2.56 µM; IC50 (UACC-812): > 2.56 µM; IC50 (WSU-NHL): > 2.56 µM; IC50 (YT): > 2.56 µM; IC50 (CMK): 2.42 µM

Question: Which results are given for `CCC1=C[C@@H]2CN(C1)Cc1c([nH]c3ccccc13)[C@@](C(=O)OC)(c1cc3c(cc1OC)N(C)[C@H]1[C@@](O)(C(=O)OC)[C@H](OC(C)=O)[C@]4(CC)C=CCN5CC[C@]31[C@@H]54)C2` [VINORELBINE]?
Answer: IC50 (Daudi): > 0.064 µM; IC50 (EB2): 0.0067 µM; IC50 (ECC12): 0.000509 µM; IC50 (ECC4): > 0.064 µM; IC50 (GDM-1): 0.0246 µM; IC50 (HCC1599): 0.0106 µM; IC50 (HSC-4): > 0.064 µM; IC50 (IMR-5): 0.0113 µM; IC50 (JIYOYE): 0.0107 µM; IC50 (K052): 0.0212 µM; IC50 (KARPAS-422): 0.0233 µM; IC50 (L-540): 0.03 µM; IC50 (LC-1F): 0.0448 µM; IC50 (LC4-1): 0.00719 µM; IC50 (LP-1): > 0.064 µM; IC50 (MEL-JUSO): 0.00426 µM; IC50 (MHH-CALL-2): > 0.064 µM; IC50 (NB1): 0.0261 µM; IC50 (NCI-H1436): 0.0136 µM; IC50 (NCI-H1522): > 0.064 µM; IC50 (NCI-H1703): 0.00283 µM; IC50 (NCI-H1882): 0.0365 µM; IC50 (NCI-H2009): 0.00846 µM; IC50 (NCI-H2196): > 0.064 µM; IC50 (NCI-H2227): > 0.064 µM; IC50 (NCI-H345): 0.0449 µM; IC50 (NCI-H889): 0.0403 µM; IC50 (OPM-2): 0.00627 µM; IC50 (PF-382): 0.0117 µM; IC50 (REH): 0.00721 µM; IC50 (RL): > 0.064 µM; IC50 (RPMI-6666): 0.00686 µM; IC50 (RPMI 8402): 0.0123 µM; IC50 (Raji): > 0.064 µM; IC50 (SNU-423): 0.00554 µM; IC50 (SNU-C1): > 0.064 µM; IC50 (SUP-T1): 0.00472 µM; IC50 (TALL-1): > 0.064 µM; IC50 (23132-87): 0.00695 µM; IC50 (BC1 cell line): 0.00939 µM; IC50 (BL-41): 0.00528 µM; IC50 (BL-70): 0.00316 µM; IC50 (BOKU): > 0.064 µM; IC50 (CA46): 0.0222 µM; IC50 (THP-1): > 0.064 µM; IC50 (UACC-812): > 0.064 µM; IC50 (WSU-NHL): 0.0337 µM; IC50 (YT): > 0.064 µM; IC50 (CMK): 0.0137 µM
